Test results from patent US8143254B2, “Methods for modulating ion channels” (Cornell Research Foundation, Inc., priority 2005, dated 2012).
Like-named read-outs stand apart in the source and are kept apart here.

Target: T1, MiRP2-Kv2.1 (Rattus norvegicus, UniProt P15387)
T1 construct: expressed in transfected cells; host or cells: Xenopus oocytes (co-injected cRNA)
T1 sequence (P15387 1-857): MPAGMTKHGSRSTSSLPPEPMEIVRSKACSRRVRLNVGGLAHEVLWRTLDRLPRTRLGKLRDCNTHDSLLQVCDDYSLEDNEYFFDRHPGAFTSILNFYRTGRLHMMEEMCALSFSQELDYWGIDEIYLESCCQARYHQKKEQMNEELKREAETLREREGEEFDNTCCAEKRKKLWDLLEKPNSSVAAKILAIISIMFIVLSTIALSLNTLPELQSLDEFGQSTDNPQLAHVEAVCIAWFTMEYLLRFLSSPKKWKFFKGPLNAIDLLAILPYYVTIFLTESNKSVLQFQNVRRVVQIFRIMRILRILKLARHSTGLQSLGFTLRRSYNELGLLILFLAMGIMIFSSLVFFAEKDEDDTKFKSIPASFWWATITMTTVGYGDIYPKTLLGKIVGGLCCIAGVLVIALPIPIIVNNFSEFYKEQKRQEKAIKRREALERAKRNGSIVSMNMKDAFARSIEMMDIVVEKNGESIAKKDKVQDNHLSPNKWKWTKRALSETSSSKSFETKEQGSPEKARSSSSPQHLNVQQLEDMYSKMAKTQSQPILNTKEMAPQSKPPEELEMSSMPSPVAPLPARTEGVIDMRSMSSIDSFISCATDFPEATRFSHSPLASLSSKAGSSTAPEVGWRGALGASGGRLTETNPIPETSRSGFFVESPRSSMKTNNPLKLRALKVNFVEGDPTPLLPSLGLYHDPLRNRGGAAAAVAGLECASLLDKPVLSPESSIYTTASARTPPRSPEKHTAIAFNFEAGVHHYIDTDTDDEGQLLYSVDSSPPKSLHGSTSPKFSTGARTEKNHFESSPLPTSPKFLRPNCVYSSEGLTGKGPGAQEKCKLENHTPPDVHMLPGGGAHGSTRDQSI
T1 sequence (Q9Y6H6 1-103 partner): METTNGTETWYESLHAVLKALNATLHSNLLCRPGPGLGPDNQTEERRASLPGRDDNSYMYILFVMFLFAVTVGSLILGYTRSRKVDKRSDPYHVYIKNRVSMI
Assay: TEVC of Xenopus oocytes co-injected with Kv2.1 and MiRP2 cRNA
Type: cell-based
Conditions: for p (Hill slope) of logistic dose-response fit: MiRP2-Kv2.1; for effect of MiRP2 on sensitivity of Kv2.1 to the compound: MiRP2-Kv2.1 versus Kv2.1 alone
Method: Stage V-VI Xenopus oocytes are separated into small groups using forceps, defolliculated by agitation in Ca^2+-free Ringer solution containing collagenase for one hour, washed, then stored at 15° C. in full Ringers solution before injection. cRNA sufficient to give 1-10 μA of current at physiological voltages for each channel type is injected into Xenopus oocytes (selected by appearance for overall health and uniformity of color) using a Sutter manual injector (typically 0.1-5 ng cRNA in a volume of 25-50 nl). The oocytes are then stored for 1-3 days at 15° C. before TEVC recording. Beta subunit cRNA is co-injected as appropriate, typically 2 ng per oocyte.
Whole cell oocyte experiments are performed using a Warner OC-725C amplifier and pClamp9 software with oocytes bathed in a small-volume Warner oocyte bath and viewed with a Fisher dissection microscope. Bath solution for whole cell oocyte recordings, e.g., for potassium channel analysis, is generally (in mM): 96 NaCl, 4 KCl, 1 MgCl2, 0.3 CaCl2, 10 HEPES (Ph 7.4); whole-cell oocyte TEVC pipettes are filled with 3 M KCl. Oocyte patches are studies using an Axon Instruments small-volume bath, viewed with an Olympus IX50 inverted microscope, and recordings made using an Axon Multiclamp 700 A Amplifier and pCLAMP9 software (Axon Instruments). Extracellular solution, e.g., for potassium channel analysis, is generally (in mM): 135 NaCl, 5 KCl, 1.2 MgCl2, 5 HEPES, 2.5 CaCl2, 10 D-glucose (Ph 7.4). Intracellular solution, e.g., for potassium channel analysis, is generally (in mM): 10 NaCl, 117 KCl, 2 MgCl2, 11 HEPES, 11 EGTA, ICaCl2 (Ph 7.2). Patch pipettes are approximately 3-5 MΩ resistance when filled with recording solution.
Quantitative aspects of ion action on ion channels are compared using standard pulse protocols. Pulse times and voltages will vary according to which currents are being studied. I/V and G/V curves are typically fit to a standard Boltzmann function: 1/{1+exp[(V1/2−V)/Vs]}, where V1/2 is the half-maximal voltage of activation and Vs the slope factor, for quantification and comparison. Kinetics of drug effects upon wash-in are generally fit with single or multiple exponential functions and values for τ and amplitude reported. Drug inhibition constants are calculated after generating a dose response curve by fitting with a logistic dose-response function (see equation (i) below). Typically, 5-20 cells per group are recorded from for heterologous expression experiments. Values are to be stated as mean±SEM with statistical significance set at p<0.05 (unpaired students t-test, ANOVA or the Mann-Whitney Rank Sum Test as appropriate).
Injected oocytes, bathed in bath solution containing 4 mM KCl, unless otherwise stated, are impaled with current and voltage electrodes and clamped at −80 mV holding potential using a Warner OC-725C amplifier. For single-voltage dose-response assessment, currents are recorded for several pulses (each of 1-5 s at a frequency of 0.1 Hz depending upon channel type) in the absence of drug, until equilibrium current level is reached, and then during further pulses with bath application of various concentrations of drug, each until equilibrium current inhibition is observed, with a washout phase in between to eliminate the possibility of channel run-down and other non-drug effects. […] Drug concentrations are chosen to ensure inhibition values between 0 and 90-100% with at least 3 values within the linear portion of the curve so that the inhibition constant (Ki) can be calculated accurately by fitting with a logistic dose-response function (formula (i)) using the Origin 6.1 graph package.
We explored blocking effects on Kv2.1 with and without the MiRP2 ancillary subunit. Kv2.1 can co-assemble with MiRP2 in rat brain. The sensitivities of two diammonium compounds (JE188 and TA279) were analyzed by functional expression in Xenopus oocytes using two-electrode voltage clamp (TEVC), and bath application of the compounds at various concentrations. […]

Row | SMILES | p (Hill slope) of logistic dose-response fit | IC50 (MiRP2-Kv2.1, external bath application, read-out: x0 of logistic dose-response fit of current inhibition (converted)) | effect of MiRP2 on sensitivity of Kv2.1 to the compound | IC50
1 | CCCCCCCCCCCC[N+]12CCN(CC1)CC2 [JE188, 1-aza-4-azonia-4-dodecylbicyclo[2.2.2]octane] | 1.6±0.2 | 49.2 ± 8.2 µM | two-fold decrease in sensitivity | 
2 | CCCCCCCCCCCCCCCC[N+]12CCN(CC1)CC2 [TA279, 1-aza-4-azonia-4-hexadecylbicyclo[2.2.2]octane] | 0.8±0.2 |  | did not significantly alter inhibition | 1.3 ± 0.4 µM
